Data on five compounds can be found in patent publication US8071588B2, “Dual pharmacophores—PDE4-muscarinic antagonistics” (Glaxo Group Limited, priority 2008, dated 2011).

The subject of assay [1] is M1, M2 (w/Gqi5) and M3 ACh receptors stably expressed in CHO cells. In words: Calcium mobilization (FLIPR) IC50 determination for antagonists, inhibition of ACh induced muscarinic receptor activation. The format is cell-based, human. Conditions: EC80 ACh, active if IC50 of between 33 uM and 10 nM or less, listed examples found to be the most active. The text has this: Studies to determine the effectiveness of antagonists to cause blockade of functional intracellular calcium fluxes following agonist (ACh) treatment of cloned human receptors.
This system is used for characterizations of antagonist-receptor interactions using four distinct variations of the FLIPR methodology: (a) potency: IC50 determination, (b) potency: pA2 determination, (c) reversibility of antagonist-receptor interaction, or (d) confirmation of no functional agonist activity. Cell Source The human M1-M3 receptors are cloned and stably expressed in Chinese Hamster Ovary (CHO) cells. The M2 receptors are co-expressed with the chimeric G protein, Gqi5. […] The emitted fluorescence from all 96 wells is measured simultaneously using a cooled CCD camera. […] Experimental Protocols: Cell plating: A microtiter plate based calcium mobilization FLIPR (Fluorometric Imaging Plate Reader, Molecular Devices, Sunnyvale Calif., [Schroeder K S, Neagle, B D. FLIPR: a new instrument for accurate, high throughput optical screening. J. Biomol. Screen. 1996; 1:75.]) assay is used for the functional characterization of compounds against M1, M2 (w/Gqi5) and M3 ACh receptors stably expressed in CHO cells. […]

The target of assay [2] is T1, Human recombinant PDE4B (Homo sapiens, UniProt Q07343).
T1 construct: made in house; host or cells: Saccharomyces cerevisiae strain GL62
Nature of the assay: Inhibition of PDE activity: luciferase-coupled PDE assay (PDE4B). The format is biochemical. The following applies: active if pIC50 of about 6 to 10.4 or greater against PDE4B; listed examples found to be the most active. The text has this: Human recombinant PDE4B, in particular the 2B splice variant thereof (HSPDE4B2B), is disclosed in WO 94/20079 and also in M. M. McLaughlin et al., “A low Km, rolipram-sensitive, cAMP-specific phosphodiesterase from human brain: cloning and expression of cDNA, biochemical characterization of recombinant protein, and tissue distribution of mRNA”, J. Biol. Chem., 1993, 268, 6470-6476. For example, in Example 1 of WO 94/20079, human recombinant PDE4B is described as being expressed in the PDE-deficient yeast Saccharomyces cerevisiae strain GL62. PDE4B expression is induced by the addition of 150 μM CuSO4.
For luminescence-coupled assay based screening the supernatant fractions of yeast cell lysates are subjected to Cibacron blue affinity chromatography, dialysis and desalting, to enrich for PDE4B and to remove components, e.g. ATP, able to interfere with the assay. Human recombinant PDE4D (HSPDE4D3A) is disclosed in P. A. Baecker et al., “Isolation of a cDNA encoding a human rolipram-sensitive cyclic AMP phosphodiesterase (PDE IVD)”, Gene, 1994, 138, 253-256. Expression of human PDE4D in yeast, and subsequent preparation of the recombinant protein for assay was as described for PDE4B.
Inhibition of PDE4B and PDE4D are measured using a luminescence-coupled assay system developed by Cambrex. This assay system couples the formation of AMP, derived from PDE4-catalyzed hydrolysis of cAMP, to the formation of ATP. The ATP is then used as a substrate for Luciferase and results in light as a signal output. […] The luminescence is then measured on a Viewlux imager (Perkin Elmer) using emission filters of 613/55 nm or 618/40 nm and a 5 second exposure. […] Curves were analyzed using ActivityBase and XL fit, and results are expressed as pIC50 values. […]
Curves were analyzed using ActivityBase and XLfit, and results are expressed as pIC50 values. […]

T1 sequence (Q07343 1-564 isoform Q07343-2): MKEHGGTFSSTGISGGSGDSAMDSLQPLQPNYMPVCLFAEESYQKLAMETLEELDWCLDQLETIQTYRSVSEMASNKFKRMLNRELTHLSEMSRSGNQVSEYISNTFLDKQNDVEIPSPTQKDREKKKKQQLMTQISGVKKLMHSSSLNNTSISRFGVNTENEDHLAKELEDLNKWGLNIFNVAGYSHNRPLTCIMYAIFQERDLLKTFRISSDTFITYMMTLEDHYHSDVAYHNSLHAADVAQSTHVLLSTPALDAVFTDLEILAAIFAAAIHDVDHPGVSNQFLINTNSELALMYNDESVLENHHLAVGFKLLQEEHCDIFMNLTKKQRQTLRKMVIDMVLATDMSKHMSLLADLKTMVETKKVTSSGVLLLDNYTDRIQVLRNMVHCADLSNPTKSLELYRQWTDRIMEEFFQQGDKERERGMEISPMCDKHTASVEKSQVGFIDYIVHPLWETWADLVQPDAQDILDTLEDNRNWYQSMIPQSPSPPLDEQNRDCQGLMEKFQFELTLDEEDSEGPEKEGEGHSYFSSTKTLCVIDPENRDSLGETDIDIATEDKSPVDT

For the compound `CCc1nc2c(cnn2CC)c(NC2CCOCC2)c1CNC(=O)CCCC(=O)NCc1ccc(F)c(-c2cccc(CN3C[C@@H]4C[C@@H]3CN4Cc3ccccc3)c2)c1` [Example 193, N-{[1,6-diethyl-4-(tetrahydro-2H-pyran-4-ylamino)-1H-pyrazolo[3,4-b]pyridin-5-yl]methyl}-N′-[(6-fluoro-3′-{[(1R,4S)-5-(phenylmethyl)-2,5-diazabicyclo[2.2.1]hept-2-yl]methyl}-3-biphenylyl)methyl]pentanediamide], in assay [1], the “activity in FLIPR antagonist IC50 assay (inhibition of ACh induced response)” value is listed as “most active”.

For the compound `CCc1nc2c(cnn2CC)c(NC2CCOCC2)c1CNC(=O)CC(=O)NCc1ccc(F)c(-c2cccc(CN3C[C@@H](C)N[C@@H](C)C3)c2)c1` [Example 217, N-{[1,6-diethyl-4-(tetrahydro-2H-pyran-4-ylamino)-1H-pyrazolo[3,4-b]pyridin-5-yl]methyl}-N′-[(3′-{[(3R,5S)-3,5-dimethyl-1-piperazinyl]methyl}-6-fluoro-3-biphenylyl)methyl]propanediamide], in assay [2], the “activity in the PDE4B assay (pIC50)” value is “most active”.

As to `CCc1nc2c(cnn2CC)c(NC2CCOCC2)c1CNC(=O)CC(=O)NCc1cccc(-c2cccc(CN3CCCNCC3)c2)c1` [Example 180, N-{[1,6-Diethyl-4-(tetrahydro-2H-pyran-4-ylamino)-1H-pyrazolo[3,4-b]pyridin-5-yl]methyl}-N′-{[3′-(hexahydro-1H-1,4-diazepin-1-ylmethyl)-3-biphenylyl]methyl}propanediamide], in assay [1], the “activity in FLIPR antagonist IC50 assay (inhibition of ACh induced response)” value is “most active”.

On to `CCc1nc2c(cnn2CC)c(NC2CCOCC2)c1CNC(=O)CCC(=O)NCc1ccc(Cl)c(-c2cccc(CN3CCN[C@@H](C)C3)c2)c1` [Example 265, N-[(6-chloro-3′-{[(3S)-3-methyl-1-piperazinyl]methyl}-3-biphenylyl)methyl]-N′-{[1,6-diethyl-4-(tetrahydro-2H-pyran-4-ylamino)-1H-pyrazolo[3,4-b]pyridin-5-yl]methyl}butanediamide], for which the “activity in the PDE4B assay (pIC50)” value in assay [2] is “most active”.

For `CCc1nc2c(cnn2CC)c(NC2CCOCC2)c1CNC(=O)CCC(=O)NCc1ccc(F)c(-c2cccc(CN3CCN[C@H](C)C3)c2)c1` [Example 267, N-{[1,6-diethyl-4-(tetrahydro-2H-pyran-4-ylamino)-1H-pyrazolo[3,4-b]pyridin-5-yl]methyl}-N′-[(6-fluoro-3′-{[(3R)-3-methyl-1-piperazinyl]methyl}-3-biphenylyl)methyl]butanediamide], in assay [2], the “activity in the PDE4B assay (pIC50)” value is “most active”.
